Earlier results, collected in PMC8513935.
Blank lines part the entries; values can stand above or below the compound they belong to.

How the values were obtained:
[1] = log P octanol/water from commercial databases, averaged (the ESI); details: Octanol (wet), 25 C
[2] = experimental, compiled by the authors from the literature (the ESI cites the sources)
[3] = derived by the authors as gas->solvent minus gas->water (a hypothetical dry solvent; the ESI), not a two-phase measurement

Compound: C1CCNC1
log K of transfer, water to solvent [1]: 0.465 log10 K

Compound: C=CCCC
log K of transfer, water to solvent [1]: 2.8 log10 K
log K of transfer, gas to solvent ([2]; 1,2-Dichloroethane, 25 C): 2.1 log10 K
log K of transfer, gas to solvent ([2]; Butan-1-ol, 25 C): 1.94 log10 K
log K of transfer, gas to solvent ([2]; Butanone, 25 C): 2.11 log10 K
log K of transfer, gas to solvent ([2]; Chlorobenzene, 25 C): 2.21 log10 K
log K of transfer, gas to solvent ([2]; Cyclohexanone, 25 C): 2.03 log10 K
log K of transfer, gas to solvent ([2]; Hexadecane, 25 C): 2.05 log10 K
log K of transfer, gas to solvent ([2]; Octan-1-ol, 25 C): 1.93 log10 K
log K of transfer, gas to solvent ([2]; Water, 25 C): -1.23 log10 K

Compound: c1ccccc1
log K of transfer, water to solvent ([3]; 1,2-Dichloroethane, 25 C): 2.69 log10 K
log K of transfer, water to solvent ([3]; 2-Methylpropan-1-ol, 25 C): 2.09 log10 K
log K of transfer, water to solvent ([3]; 2-Methylpropan-2-ol, 25 C): 2.09 log10 K
log K of transfer, water to solvent ([3]; Acetone, 25 C): 2.58 log10 K
log K of transfer, water to solvent ([3]; Acetonitrile, 25 C): 2.43 log10 K
log K of transfer, water to solvent ([3]; Benzene, 25 C): 2.71 log10 K
log K of transfer, water to solvent ([3]; Butan-1-ol, 25 C): 2.24 log10 K
log K of transfer, water to solvent ([3]; Butan-2-ol, 25 C): 2.14 log10 K
log K of transfer, water to solvent ([3]; Butanone, 25 C): 2.66 log10 K
log K of transfer, water to solvent ([3]; Butyronitrile, 25 C): 2.6 log10 K
log K of transfer, water to solvent ([3]; CCl4, 25 C): 2.61 log10 K
log K of transfer, water to solvent ([3]; Chlorobenzene, 25 C): 2.61 log10 K
log K of transfer, water to solvent ([3]; Chloroform, 25 C): 2.76 log10 K
log K of transfer, water to solvent ([3]; Cyclohexane, 25 C): 2.3 log10 K
log K of transfer, water to solvent ([3]; Cyclohexanone, 25 C): 2.67 log10 K
log K of transfer, water to solvent ([3]; Decan-1-ol, 25 C): 2 log10 K
log K of transfer, water to solvent ([3]; Di-n-butyl ether, 25 C): 2.38 log10 K
log K of transfer, water to solvent ([3]; Dichloromethane, 25 C): 2.89 log10 K
log K of transfer, water to solvent ([3]; Ethanol, 25 C): 2.15 log10 K
log K of transfer, water to solvent ([3]; Heptan-1-ol, 25 C): 2.18 log10 K
log K of transfer, water to solvent ([3]; Hexadecane, 25 C): 2.15 log10 K
log K of transfer, water to solvent ([3]; Hexane, 25 C): 2.31 log10 K
log K of transfer, water to solvent ([3]; Methanol, 25 C): 2.14 log10 K
log K of transfer, water to solvent ([3]; Octan-1-ol(dry), 25 C): 2.17 log10 K
log K of transfer, water to solvent ([3]; Pentan-1-ol, 25 C): 2.2 log10 K
log K of transfer, water to solvent ([3]; Propan-1-ol, 25 C): 2.15 log10 K
log K of transfer, water to solvent ([3]; Propan-2-ol, 25 C): 2.04 log10 K
log K of transfer, water to solvent ([3]; Propionitrile, 25 C): 2.6 log10 K
log K of transfer, water to solvent ([3]; Tetrahydrofuran, 25 C): 2.85 log10 K
log K of transfer, water to solvent ([3]; Toluene, 25 C): 2.64 log10 K
log K of transfer, water to solvent [1]: 2.08 log10 K

Further lines, results first:

log K of transfer, water to solvent [1]: 3.9 log10 K
log K of transfer, gas to solvent ([2]; 1,2-Dichloroethane, 25 C): 2.51 log10 K
log K of transfer, gas to solvent ([2]; 2-Methylpropan-1-ol, 25 C): 2.46 log10 K
log K of transfer, gas to solvent ([2]; 2-Methylpropan-2-ol, 25 C): 2.44 log10 K
log K of transfer, gas to solvent ([2]; 3-Methylbutan-1-ol, 25 C): 2.39 log10 K
log K of transfer, gas to solvent ([2]; Acetonitrile, 25 C): 1.96 log10 K
log K of transfer, gas to solvent ([2]; Benzene, 25 C): 2.65 log10 K
log K of transfer, gas to solvent ([2]; Butan-1-ol, 25 C): 2.44 log10 K
log K of transfer, gas to solvent ([2]; Butanone, 25 C): 2.52 log10 K
log K of transfer, gas to solvent ([2]; Butyronitrile, 25 C): 2.34 log10 K
log K of transfer, gas to solvent ([2]; CCl4, 25 C): 2.98 log10 K
log K of transfer, gas to solvent ([2]; Chlorobenzene, 25 C): 2.95 log10 K
log K of transfer, gas to solvent ([2]; Chloroform, 25 C): 2.87 log10 K
log K of transfer, gas to solvent ([2]; Cyclohexanone, 25 C): 2.44 log10 K
log K of transfer, gas to solvent ([2]; Di-n-butyl ether, 25 C): 2.82 log10 K
log K of transfer, gas to solvent ([2]; Dichloromethane, 25 C): 2.75 log10 K
log K of transfer, gas to solvent ([2]; Ethanol, 25 C): 2.24 log10 K
log K of transfer, gas to solvent ([2]; Heptan-1-ol, 25 C): 2.44 log10 K
log K of transfer, gas to solvent ([2]; Hexadecane, 25 C): 2.67 log10 K
log K of transfer, gas to solvent ([2]; Hexan-1-ol, 25 C): 2.48 log10 K
log K of transfer, gas to solvent ([2]; Hexane, 25 C): 2.97 log10 K
log K of transfer, gas to solvent ([2]; Methanol, 25 C): 2.05 log10 K
log K of transfer, gas to solvent ([2]; Octan-1-ol, 25 C): 2.44 log10 K
log K of transfer, gas to solvent ([2]; Pentan-1-ol, 25 C): 2.44 log10 K
log K of transfer, gas to solvent ([2]; Perfluoroalkane, 25 C): 1.88 log10 K
log K of transfer, gas to solvent ([2]; Propan-1-ol, 25 C): 2.28 log10 K
log K of transfer, gas to solvent ([2]; Propan-2-ol, 25 C): 2.3 log10 K
log K of transfer, gas to solvent ([2]; Propanone, 25 C): 2.37 log10 K
log K of transfer, gas to solvent ([2]; Propionitrile, 25 C): 2.22 log10 K
log K of transfer, gas to solvent ([2]; Tetrahydrofuran, 25 C): 2.84 log10 K
log K of transfer, gas to solvent ([2]; Toluene, 25 C): 2.82 log10 K
log K of transfer, gas to solvent ([2]; Water, 25 C): -1.82 log10 K
Compound: CCCCCC

log K of transfer, water to solvent [1]: 8 log10 K
Compound: CCCCCCCCCCCCCC

log K of transfer, water to solvent ([3]; 1,2-Dichloroethane, 25 C): -1.58 log10 K
log K of transfer, water to solvent ([3]; 2-Methylpropan-1-ol, 25 C): -0.58 log10 K
log K of transfer, water to solvent ([3]; 2-Methylpropan-2-ol, 25 C): -0.35 log10 K
log K of transfer, water to solvent ([3]; 3-Methylbutan-1-ol, 25 C): -0.672 log10 K
log K of transfer, water to solvent ([3]; Acetone, 25 C): -0.71 log10 K
log K of transfer, water to solvent ([3]; Acetonitrile, 25 C): -0.81 log10 K
log K of transfer, water to solvent ([3]; Benzene, 25 C): -1.85 log10 K
log K of transfer, water to solvent ([3]; Butan-1-ol, 25 C): -0.72 log10 K
log K of transfer, water to solvent ([3]; Butan-2-ol, 25 C): -0.45 log10 K
log K of transfer, water to solvent ([3]; Butanone, 25 C): -0.93 log10 K
log K of transfer, water to solvent ([3]; Butyronitrile, 25 C): -1.06 log10 K
log K of transfer, water to solvent ([3]; CCl4, 25 C): -2.24 log10 K
log K of transfer, water to solvent ([3]; Chlorobenzene, 25 C): -2.07 log10 K
log K of transfer, water to solvent ([3]; Chloroform, 25 C): -1.33 log10 K
log K of transfer, water to solvent ([3]; Cyclohexane, 25 C): -2.77 log10 K
log K of transfer, water to solvent ([3]; Decan-1-ol, 25 C): -1.21 log10 K
log K of transfer, water to solvent ([3]; Di-n-butyl ether, 25 C): -1.8 log10 K
log K of transfer, water to solvent ([3]; Dichloromethane, 25 C): -1.45 log10 K
log K of transfer, water to solvent ([3]; Diethyl Ether, 25 C): -1.26 log10 K
log K of transfer, water to solvent ([3]; Ethanol, 25 C): -0.34 log10 K
log K of transfer, water to solvent ([3]; Hexadecane, 25 C): -2.77 log10 K
log K of transfer, water to solvent ([3]; Hexane, 25 C): -2.59 log10 K
log K of transfer, water to solvent ([3]; Methanol, 25 C): -0.14 log10 K
log K of transfer, water to solvent ([3]; Octan-1-ol(dry), 25 C): -0.9 log10 K
log K of transfer, water to solvent ([3]; Pentan-1-ol, 25 C): -0.67 log10 K
log K of transfer, water to solvent ([3]; Propan-1-ol, 25 C): -0.59 log10 K
log K of transfer, water to solvent ([3]; Propan-2-ol, 25 C): -0.46 log10 K
log K of transfer, water to solvent ([3]; Tetrahydrofuran, 25 C): -0.9 log10 K
log K of transfer, water to solvent ([3]; Toluene, 25 C): -2.14 log10 K
log K of transfer, water to solvent [1]: -0.755 log10 K
Compound: CO
